According to patent publication US11752120B2, “Use of succinic acid in increasing sensitivity of bacteria to antibiotics” (SUN YAT-SEN UNIVERSITY, priority 2018, dated 2023):
Read-outs that look alike come from different tables or passages of the source.

Experiments:
[1] = system: clinical Escherichia coli YT16 and YT28; assay: Viable bacteria count / survival rate after antibiotic with or without succinic acid in M9 medium; assay type: cell-based
Description: A single colony of clinical bacteria was picked from a solid LB plate and was inoculated in 5 mL LB liquid medium for culture at 37° C. and 200 rpm for 16 hours, and then was inoculated in 100 mL LB liquid medium at a ratio of 1:100 (v/v) and was cultured at 37° C. until OD600 value was 1.0. 20 mL of bacterial solution was collected and centrifuged at 8000 rpm for 5 minutes, the supernatant was cleared and bacterial cells were washed with an equal volume of 0.85% normal saline, and finally the bacterial cells were suspended with 1×M9 basic medium (containing 10 mM acetate), the OD value of the bacterial solution was adjusted to 0.5, and then 5 mL of the bacterial solution was aliquoted in a test tube for the following experimental studies.
The survival rates of the clinical bacteria in medium with adding succinic acid and without adding succinic acid at the same antibiotic concentration were compared.
The formula is the number of viable bacteria when different concentrations of succinic acid were added/the number of viable bacteria without adding succinic acid×100%.
In order to study whether clinical Escherichia coli has effect on penicillin antibiotics after adding succinic acid, two clinical Escherichia coli samples of YT16 and YT28 were prepared according to step 2 in Embodiment 1, 20 mM succinic acid and 3 kinds of penicillin were added respectively, […], the number of viable bacteria was counted, and the survival rate was calculated. […]

[2] = system: clinical Escherichia coli biofilm; assay: In vitro bactericidal assay of biofilm; assay type: cell-based; conditions: catheter biofilm, 6 hours; succinic acid 580 mg/kg; ampicillin 2000 mg/kg for YT16, 500 mg/kg for YT28
Description: (§1) […] of clinical Escherichia coli (YT3, YT11, YT12, YT16, YT17, YT21, YT22, YT23, YT28, YT33) were picked, monocloned into LB medium, and cultured overnight, then were transferred into 2 mL fresh LB medium at 1:200, and added with a 6 mm PE-50 biological catheter that was sterilized by UV, and cultured in a 37° C. incubator for culture for 24 hours. The bacterial solution was replaced with 1 mL of LB medium daily, and the catheter was continuously cultured for 3 days. The prepared biofilm was washed 5 times with 1 mL of sterile normal saline, and then placed in a 1.5 mL EP tube.
The assay was divided into 4 groups: normal saline control group, succinic acid group, ampicillin group, ampicillin+succinic acid group, and the catheters were treated in a shaker at 37° C. and 200 rpm. A dosage of succinic acid was 580 mg/kg, and a dosage of ampicillin was 2000 mg/kg for YT16, and 500 mg/kg for YT28. After 6 hours, ultrasonic cleaning was conducted for 15 minutes, the biofilm on the catheter was eluted and thoroughly mixed, and after gradient dilution, spot plate counting was performed. The formula for calculating the bacterial survival rate is: number of viable bacteria in each group/number of viable bacteria in the control group×100%.

[3] = system: clinical Escherichia coli biofilm; conditions: mice
Description: as §1
Further, mice were used as test animals, and the prepared clinical Escherichia coli biofilm was implanted into the mouse urethra to construct a mouse chronic urinary tract infection model for conducting an in vivo clinical Escherichia coli clearance test was performed: a 6-mm PE-50 biological catheter of a clinical Escherichia coli biofilm formed by culture for 3 days was implanted into the urethra of a 5-week-old Kunming female mouse (about 20 g). After 48 hours, mice were divided into 2 groups of 5 mice each, which were the ampicillin group and the ampicillin+succinic acid group. […] 24 hours after the last injection, the catheter tube was taken into normal saline to suspend the biofilm bacteria in the ultrasound, and gradient dilution and plate counting were performed to calculate the bacterial survival rate on the catheter biofilm. The calculation formula is the number of viable bacteria in the injection substance group/number of viable bacteria in the control group×100%.

[4] = system: clinical Escherichia coli YT16 and YT28; conditions: 6 hours (FIG. 9)
Description: The cultured bacteria were washed and resuspended in normal saline, OD600 value was adjusted to 1.0, and 1 mL of bacterial cells were taken for ultrasonication, and after centrifugation, the supernatant was taken to determine the antibiotic content. The ampicillin ELISA rapid diagnostic kit (purchased from Shenzhen Lvshiyuan Biotechnology Co., Ltd., with a detection range of 2 to 1000 g/mL) was used for detection and the specific steps are as follows: 50 μL of sample (or standard) and 50 μL of antibody were added into a 96-well plate, mixed gently, and incubated at 25° C. for 30 minutes, and the plate was washed 4 to 5 times; 100 μL of enzyme standard was added, mixed gently, and incubated away from light at 25° C. for 30 minutes, and the plate was washed 4 to 5 times; 50 μL of substrates A and B was added respectively, mixed gently, and incubated away from light at 25° C. for 15 minutes; and finally, a stop solution was added to stop the reaction, and an enzyme-labeled instrument was set to measure the absorbance of the reaction product at 450 nm. A standard curve was drawn, with the percent absorbance of the standard as an ordinate and semi-log of the concentration of the ampicillin standard (ng/mL) as the abscissa. AMP actual concentration=sample detection concentration xdilution multiple.

[5] = system: clinical Escherichia coli YT16 and YT28; conditions: 6 hours (FIG. 10)
Description: A concentration of the treated bacteria was adjusted to 106 CFU/mL, 1 mL of the treated bacteria was taken and transferred into a 1.5 mL EP tube, 10 μL of 3 mM DiOC2 (3,3′-diethyloxa-carbocyanine iodide) was added, and oscillation and incubation were performed for 30 minutes after mixing sufficiently. The bacteria were transferred to a flow cytometry analysis tube before use on the machine, a FACSCalibur flow cytometer (Becton Dickinson, San Jose, Calif., USA) was used for detection, and parameter settings were performed according to the instrument operating procedures. The dye DiOC2 (3) has a green fluorescence excitation wavelength of 488 nm, an emission wavelength of 530 nm, a red fluorescence excitation wavelength of 488 nm, and an emission wavelength of 610 nm. The ratio of the red light intensity to the green light intensity indicates the intensity of the membrane potential, and calculation formula of the proton motive force (PMF) value is LOG (10^3/2*Y mean/X mean). Y mean and X mean represent red light intensity and green light intensity, respectively. Determination was performed according the instructions of the BacLight bacterial membrane potential kit (Invitrogen) kit.

[6] = YT16, 10 mg/mL ampicillin + 1.25 mM succinic acid, 4 hours (FIG. 3)
[7] = YT16, 10 mg/mL ampicillin + 20 mM succinic acid, 4 hours (FIG. 3)
[8] = YT28, 10 mg/mL ampicillin + 1.25 mM succinic acid, 4 hours (FIG. 3)
[9] = YT28, 10 mg/mL ampicillin + 20 mM succinic acid, 4 hours (FIG. 3)

Compound: O=C(O)CCC(=O)O [succinic acid]
- survival rate ([1]; YT16, 2.5 mg/mL ampicillin after adding 20 mM succinic acid, 4 hours): 30.06%
- survival rate ([1]; YT16, 5 mg/mL ampicillin after adding 20 mM succinic acid, 4 hours): 2.06%
- bacterial survival rate [1, 6]: 69.23%
- bactericidal efficiency [1, 6]: 1.07 times
- bacterial survival rate [1, 7]: 1.19%
- bactericidal efficiency [1, 7]: 61 times
- survival rate ([1]; YT16, 10 mg/mL ampicillin after adding 20 mM succinic acid, 4 hours (FIG. 1)): 0.41%
- survival rate ([1]; YT16, 10 mg/mL ampicillin and 20 mM succinic acid, 1 hour (FIG. 2)): 71.54%
- survival rate ([1]; YT16, 10 mg/mL ampicillin and 20 mM succinic acid, 4 hours (FIG. 2)): 0.78%
- survival rate ([1]; YT16, 10 mg/mL ampicillin and 20 mM succinic acid, 7 hours (FIG. 2)): 0.01%
- increase of sensitivity to penicillin G sodium salt ([1]; YT16, 20 mM succinic acid + 0.5 mg/mL penicillin G sodium salt, 4 hours): 4.96 times
- increase of sensitivity to penicillin G sodium salt ([1]; YT16, 20 mM succinic acid + 0.75 mg/mL penicillin G sodium salt, 4 hours): 5.13 times
- increase of sensitivity to carbenicillin ([1]; YT16, 20 mM succinic acid + 1.25 mg/mL carbenicillin, 4 hours): 1.99 times
- increase of sensitivity to carbenicillin ([1]; YT16, 20 mM succinic acid + 2.5 mg/mL carbenicillin, 4 hours): 11.65 times
- increase of sensitivity to amoxicillin ([1]; YT16, 20 mM succinic acid + 5 mg/mL amoxicillin, 4 hours): 15.86 times
- increase of sensitivity to amoxicillin ([1]; YT16, 20 mM succinic acid + 7.5 mg/mL amoxicillin, 4 hours): 3.37 times
- bactericidal efficiency ([1]; YT16, 20 mM succinic acid + 10 mg/mL ampicillin vs ampicillin only, at 1 hour (FIG. 2)): 1.33 time
- bactericidal efficiency ([1]; YT16, 20 mM succinic acid + 10 mg/mL ampicillin vs ampicillin only, at 4 hours (FIG. 2)): 60.66 times
- bactericidal efficiency ([1]; YT16, 20 mM succinic acid + 10 mg/mL ampicillin vs ampicillin only, at 7 hours (FIG. 2)): 1744.19 times
- bactericidal efficiency increase ([1]; YT16, 20 mM succinic acid added to 2.5 mg/mL ampicillin, 4 hours, vs ampicillin alone): more than 2 times
- bactericidal efficiency increase ([1]; YT16, 20 mM succinic acid added to 5 mg/mL ampicillin, 4 hours, vs ampicillin alone): 16.75 times
- bactericidal efficiency increase ([1]; YT16, 20 mM succinic acid added to 10 mg/mL ampicillin, 4 hours, vs ampicillin alone (FIG. 1)): 62.25 times
- bactericidal efficiency increase ([1]; YT16, 20 mM succinic acid added to 20 mg/mL ampicillin, 4 hours, vs ampicillin alone): 105.96 times
- enhancement of sensitivity to different kinds of antibiotics ([1]; YT16, 20 mM succinic acid with gentamicin, ciprofloxacin, tetracycline, erythromycin, clindamycin or rifampin, 4 hours (FIG. 6)): about 2 times
- survival rate ([1]; YT16, 20 mg/mL ampicillin after adding 20 mM succinic acid, 4 hours): 0.12%
- survival rate ([1]; YT28, 2.5 mg/mL ampicillin after adding 20 mM succinic acid, 4 hours): 41.62%
- survival rate ([1]; YT28, 5 mg/mL ampicillin after adding 20 mM succinic acid, 4 hours): 12.71%
- bacterial survival rate [1, 8]: 80.31%
- bactericidal efficiency [1, 8]: 1.07 times
- bacterial survival rate [1, 9]: 4.24%
- bactericidal efficiency [1, 9]: 20 times
- survival rate ([1]; YT28, 10 mg/mL ampicillin after adding 20 mM succinic acid, 4 hours (FIG. 1)): 1.7%
- survival rate ([1]; YT28, 10 mg/mL ampicillin and 20 mM succinic acid, 1 hour (FIG. 2)): 66.81%
- survival rate ([1]; YT28, 10 mg/mL ampicillin and 20 mM succinic acid, 4 hours (FIG. 2)): 1.25%
- survival rate ([1]; YT28, 10 mg/mL ampicillin and 20 mM succinic acid, 7 hours (FIG. 2)): 0.18%
- increase of sensitivity to penicillin G sodium salt ([1]; YT28, 20 mM succinic acid + 0.5 mg/mL penicillin G sodium salt, 4 hours): 2.66 times
- increase of sensitivity to penicillin G sodium salt ([1]; YT28, 20 mM succinic acid + 0.75 mg/mL penicillin G sodium salt, 4 hours): 9.34 times
- increase of sensitivity to carbenicillin ([1]; YT28, 20 mM succinic acid + 1.25 mg/mL carbenicillin, 4 hours): 1.8 times
- increase of sensitivity to carbenicillin ([1]; YT28, 20 mM succinic acid + 2.5 mg/mL carbenicillin, 4 hours): 15.85 times
- increase of sensitivity to amoxicillin ([1]; YT28, 20 mM succinic acid + 5 mg/mL amoxicillin, 4 hours): 13.94 times
- increase of sensitivity to amoxicillin ([1]; YT28, 20 mM succinic acid + 7.5 mg/mL amoxicillin, 4 hours): 31.85 times
- bactericidal efficiency ([1]; YT28, 20 mM succinic acid + 10 mg/mL ampicillin vs ampicillin only, at 1 hour (FIG. 2)): 1.44 time
- bactericidal efficiency ([1]; YT28, 20 mM succinic acid + 10 mg/mL ampicillin vs ampicillin only, at 4 hours (FIG. 2)): 21.45 times
- bactericidal efficiency ([1]; YT28, 20 mM succinic acid + 10 mg/mL ampicillin vs ampicillin only, at 7 hours (FIG. 2)): 78.34 times
- bactericidal efficiency increase ([1]; YT28, 20 mM succinic acid added to 2.5 mg/mL ampicillin, 4 hours, vs ampicillin alone): more than 1.65 times
- bactericidal efficiency increase ([1]; YT28, 20 mM succinic acid added to 5 mg/mL ampicillin, 4 hours, vs ampicillin alone): 4.42 times
- bactericidal efficiency increase ([1]; YT28, 20 mM succinic acid added to 10 mg/mL ampicillin, 4 hours, vs ampicillin alone (FIG. 1)): 21.06 times
- bactericidal efficiency increase ([1]; YT28, 20 mM succinic acid added to 20 mg/mL ampicillin, 4 hours, vs ampicillin alone): 34.48 times
- survival rate ([1]; YT28, 20 mg/mL ampicillin after adding 20 mM succinic acid, 4 hours): 0.79%
- clearance of clinical Escherichia coli on the biofilms, used alone [2]: cannot clear
- bactericidal efficiency increase on catheter biofilm ([3]; i.p. 590 mg/kg succinic acid + ampicillin (2000 or 500 mg/kg) twice a day for 3 days vs ampicillin group, 1st of the 9 strains (YT3 by order of b93)): 14 times
- bactericidal efficiency increase on catheter biofilm ([3]; i.p. 590 mg/kg succinic acid + ampicillin twice a day for 3 days vs ampicillin group, 2nd of the 9 strains (YT11 by order of b93)): 5 times
- bactericidal efficiency increase on catheter biofilm ([3]; i.p. 590 mg/kg succinic acid + ampicillin twice a day for 3 days vs ampicillin group, 3rd of the 9 strains (YT12 by order of b93)): 53 times
- bactericidal efficiency increase on catheter biofilm ([3]; i.p. 590 mg/kg succinic acid + ampicillin twice a day for 3 days vs ampicillin group, 4th of the 9 strains (YT16 by order of b93)): 30 times
- bactericidal efficiency increase on catheter biofilm ([3]; i.p. 590 mg/kg succinic acid + ampicillin twice a day for 3 days vs ampicillin group, 5th of the 9 strains (YT17 by order of b93)): 5 times
- bactericidal efficiency increase on catheter biofilm ([3]; i.p. 590 mg/kg succinic acid + ampicillin twice a day for 3 days vs ampicillin group, 6th of the 9 strains (YT21 by order of b93)): 9 times
- bactericidal efficiency increase on catheter biofilm ([3]; i.p. 590 mg/kg succinic acid + ampicillin twice a day for 3 days vs ampicillin group, 7th of the 9 strains (YT22 by order of b93)): 38 times
- bactericidal efficiency increase on catheter biofilm ([3]; i.p. 590 mg/kg succinic acid + ampicillin twice a day for 3 days vs ampicillin group, 8th of the 9 strains (YT23 by order of b93)): 17 times
- bactericidal efficiency increase on catheter biofilm ([3]; i.p. 590 mg/kg succinic acid + ampicillin twice a day for 3 days vs ampicillin group, 9th of the 9 strains (YT28 by order of b93)): 53 times
- increase of the number of antibiotics (ampicillin) in the bacteria ([4]; YT16, ampicillin and succinic acid vs only ampicillin): 5.97 times
- increase of the number of antibiotics (ampicillin) in the bacteria ([4]; YT28, ampicillin and succinic acid vs only ampicillin): 7.99 times
- increase of proton motive force of the bacteria ([5]; YT16, succinic acid added vs control without): 1.2 times
- increase of proton motive force of the bacteria ([5]; YT28, succinic acid added vs control without): 1.45 times
